These results are taken from patent US9329185B2, “Sulfonate compounds” (University of Massachusetts, priority 2013, dated 2016).

The melting point is the temperature, or range, at which the solid turns liquid.

The nature of data set [1]: Cleavage of reductive-labile protecting group by a reducing agent (TLC analysis). Format: physicochemical. The settings on record: 1 mM reducing agent (dithiothreitol or tris(2-carboxyethyl)phosphine), 30 minutes, room temperature, water (pH 7), analyzed by TLC. As for the experimental part:
Compound 1 was treated with 1 mM of a reducing agent, i.e., dithiothreitol or tris(2-carboxyethyl)phosphine, for 30 minutes at room temperature in water (pH 7). The solution was analyzed by TLC. A control experiment was conducted by analyzing an aqueous solution containing Compound 1 without being treated with a reducing agent by using TLC.

The structures appear in SMILES notation.

For `Cc1ccc(C(OS(=O)(=O)CCCN2CCCc3cc4c(cc32)Oc2cc3c(cc2=N4)CCC[N+]=3CCCS(=O)(=O)OC(c2ccc(C)cc2)C(F)(F)F)C(F)(F)F)cc1` (stereo not drawn), the melting point is 220 to 222 °C (dec.).

As to `CSSc1ccc(C(OS(=O)(=O)c2cccc3c(N(C)C)cccc23)C(F)(F)F)cc1` (stereo not drawn) [Compound 1, 2,2,2-trifluoro-1-(4-(methyldisulfanyl)phenyl)-ethyl 5-(dimethylamino)naphthalene-1-sulfonate], the “cleavage of the protecting group to form a deprotected sulfonate dye” value in data set [1] was “rapidly cleaved”. In turn, `Cc1ccc(C(OS(=O)(=O)CCCCl)C(F)(F)F)cc1` (stereo not drawn) [Compound 22, 2,2,2-trifluoro-1-(p-tolyl)ethyl 3-chloropropane-1-sulfonate] gave a melting point of 61 to 63 °C.
